# Laboratory results from patent US8871765B2, “Substituted 4-(4-fluoro-3-(piperazine-1-carbonyl)benzyl)phthalazin-1(2H)-one derivatives as poly (ADP-ribose) polymerase-1 inhibitors” (Cadila Healthcare Limited, priority 2010, dated 2014).
# What was measured:
# MCF-7 cell line = test: Potentiation of cell killing activity of Methyl Methane Sulphonate (MMS) in MCF-7 cells, MTT assay; format: cell-based; conditions: compound at 100 nM, cell survival without/with alkylating agent MMS
# Experimental: Potentiation of cell killing activity of Methyl Methane Sulphonate (MMS) by selected compounds according to present invention was evaluated in MCF-7 cell line obtained from National Centre for Cell Science, Pune, by using MTT assay according to general protocol described in Methods in Molecular Biology, Volume-43, In vitro Toxicity Testing Protocol, Chapter-6, page: 137-149. Compounds were tested for PARP 1 activity based on percent cell survival of MCF-7 cells with alkylating agent MMS.
# PARP-1 = target: T1, PARP-1 (Homo sapiens, UniProt P09874); test: PARP-1 inhibitory activity, HT universal colorimetric PARP assay kit (Trevigen); format: biochemical; conditions: HT universal colorimetric PARP assay kit; read-out: PARP-1 activity in vitro IC50 nM)
# T1 construct: purchased Trevigen
# Experimental: The compounds were tested for PARP-1 inhibitory activity by using HT universal colorimetric PARP assay kit obtained from Trevigen, following manufacturer's protocol.
# T1 sequence (P09874 whole entry): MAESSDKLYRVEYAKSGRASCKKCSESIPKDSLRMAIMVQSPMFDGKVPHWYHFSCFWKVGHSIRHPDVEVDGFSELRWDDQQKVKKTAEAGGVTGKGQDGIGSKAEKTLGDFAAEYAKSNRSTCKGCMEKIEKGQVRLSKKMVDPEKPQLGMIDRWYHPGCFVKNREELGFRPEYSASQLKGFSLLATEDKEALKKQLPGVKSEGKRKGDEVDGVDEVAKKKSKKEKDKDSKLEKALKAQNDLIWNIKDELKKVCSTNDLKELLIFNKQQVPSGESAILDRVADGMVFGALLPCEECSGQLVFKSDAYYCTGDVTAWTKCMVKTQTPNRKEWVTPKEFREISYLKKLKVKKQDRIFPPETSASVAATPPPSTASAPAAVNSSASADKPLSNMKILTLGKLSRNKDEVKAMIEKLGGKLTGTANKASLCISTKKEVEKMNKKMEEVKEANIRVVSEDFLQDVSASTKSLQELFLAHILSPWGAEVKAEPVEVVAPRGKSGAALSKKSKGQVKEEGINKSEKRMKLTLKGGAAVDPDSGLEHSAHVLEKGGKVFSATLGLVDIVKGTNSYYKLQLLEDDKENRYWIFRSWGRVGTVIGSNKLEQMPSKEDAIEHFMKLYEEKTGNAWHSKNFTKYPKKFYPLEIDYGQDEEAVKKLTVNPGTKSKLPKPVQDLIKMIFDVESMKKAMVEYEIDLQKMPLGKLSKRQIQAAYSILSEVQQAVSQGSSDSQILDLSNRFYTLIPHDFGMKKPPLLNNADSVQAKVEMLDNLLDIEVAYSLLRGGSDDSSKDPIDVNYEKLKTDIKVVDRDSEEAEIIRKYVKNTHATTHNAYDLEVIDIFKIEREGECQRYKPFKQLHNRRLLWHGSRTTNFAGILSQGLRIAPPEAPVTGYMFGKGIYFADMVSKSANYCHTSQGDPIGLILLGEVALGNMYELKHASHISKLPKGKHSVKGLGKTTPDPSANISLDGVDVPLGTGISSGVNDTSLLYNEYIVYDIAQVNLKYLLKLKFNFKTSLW
Structure (SMILES),IC50 (PARP-1),Survival affected by drug [(−MMS/+MMS)] at 100 nM (MCF-7 cell line)
"O=C(c1cc(Cc2n[nH]c(=O)c3ccccc23)ccc1F)N1CCN(C(=O)C2CC2)CC1 [AZD, reference compound]",–,2.19
"COc1ccc(OC(C)(C)C(=O)N2CCN(C(=O)c3cc(Cc4n[nH]c(=O)c5ccccc45)ccc3F)CC2)cc1 [Example 3, 4-(4-fluoro-3-(4-(2-methyl-2-(4-methoxyphenoxy)propanoyl)piperazine-1-carbonyl)benzyl)phthalazin-1(2H)-one]",11 nM,2.07
"CC(C)(Oc1ccccn1)C(=O)N1CCN(C(=O)c2cc(Cc3n[nH]c(=O)c4ccccc34)ccc2F)CC1 [Example 17, 4-(4-fluoro-3-(4-(2-methyl-2-(pyridin-2-yloxy)propanoyl)piperazine-1-carbonyl)benzyl)phthalazin-1(2H)-one]",13.9 nM,1.93
"CC(C)(Oc1ccccc1[N+](=O)[O-])C(=O)N1CCN(C(=O)c2cc(Cc3n[nH]c(=O)c4ccccc34)ccc2F)CC1 [Example 19, 4-(4-fluoro-3-(4-(2-methyl-2-(2-nitrophenoxy)propanoyl)piperazine-1-carbonyl)benzyl)phthalazin-1(2H)-one]",12.4 nM,2.19
"CC(C)(Oc1ccc(Br)cc1Cl)C(=O)N1CCN(C(=O)c2cc(Cc3n[nH]c(=O)c4ccccc34)ccc2F)CC1 [Example 20, 4-(3-(4-(2-(4-bromo-2-chlorophenoxy)-2-methylpropanoyl)piperazine-1-carbonyl)-4-fluorobenzyl)phthalazin-1(2H)-one]",14.3 nM,2.15
"CC(C)(Oc1cccc(C(F)(F)F)c1)C(=O)N1CCN(C(=O)c2cc(Cc3n[nH]c(=O)c4ccccc34)ccc2F)CC1 [Example 21, 4-(4-fluoro-3-(4-(2-methyl-2-(3-(trifluoromethyl)phenoxy)propanoyl)piperazine-1-carbonyl)benzyl)phthalazin-1(2H)-one]",12 nM,1.62
"CC(C)(C(=O)N1CCN(C(=O)c2cc(Cc3n[nH]c(=O)c4ccccc34)ccc2F)CC1)S(=O)(=O)c1ccccc1 [Example 23, 4-(4-fluoro-3-(4-(2-methyl-2-(phenylsulfonyl)propanoyl)piperazine-1-carbonyl)benzyl)phthalazin-1(2H)-one]",4.23 nM,2.11
"CC(C)(C(=O)N1CCN(C(=O)c2cc(Cc3n[nH]c(=O)c4ccccc34)ccc2F)CC1)S(=O)(=O)c1ccc(F)cc1 [Example 24, 4-(4-fluoro-3-(4-(2-((4-fluorophenyl)sulfonyl)-2-methylpropanoyl)piperazine-1-carbonyl)benzyl)phthalazin-1(2H)-one]",4.66 nM,2.28
"CC(C)(Nc1ccccc1)C(=O)N1CCN(C(=O)c2cc(Cc3n[nH]c(=O)c4ccccc34)ccc2F)CC1 [Example 35, 4-(4-fluoro-3-(4-(2-methyl-2-(phenylamino)-propanoyl)piperazine-1-carbonyl)benzyl)phthalazin-1(2H)-one]",3.56 nM,3.33
"CC(C)(SC1CCCC1)C(=O)N1CCN(C(=O)c2cc(Cc3n[nH]c(=O)c4ccccc34)ccc2F)CC1 [Example 36, 4-(3-(4-(2-(cyclopentylthio)-2-methylpropanoyl)piperazine-1-carbonyl)-4-fluorobenzyl)phthalazin-1(2H)-one]",5.17 nM,2.59
"Cc1cc(OC(C)(C)C(=O)N2CCN(C(=O)c3cc(Cc4n[nH]c(=O)c5ccccc45)ccc3F)CC2)cc(C)c1Br [Example 37, 4-(3-(4-(2-(4-bromo-3,5-dimethylphenoxy)-2-methylpropanoyl)piperazine-1-carbonyl)-4-fluorobenzyl)phthalazin-1(2H)-one]",16.5 nM,1.61
"CC(C)(C(=O)N1CCN(C(=O)c2cc(Cc3n[nH]c(=O)c4ccccc34)ccc2F)CC1)[S+]([O-])c1ccc(Cl)cc1Cl (stereo not drawn) [Example 39, 4-(3-(4-(2-(2,4-dichlorophenylsulfinyl)-2-methylpropanoyl)piperazine-1-carbonyl)-4-fluorobenzyl)phthalazin-1(2H)-one]",9.47 nM,2.29

# Now from value to compound, other results behind:
IC50 (PARP-1),Structure (SMILES),Survival affected by drug [(−MMS/+MMS)] at 100 nM (MCF-7 cell line)
5.3 nM,"CC(C)(Sc1ccc(F)cc1)C(=O)N1CCN(C(=O)c2cc(Cc3n[nH]c(=O)c4ccccc34)ccc2F)CC1 [Example 22, 4-(4-fluoro-3-(4-(2-((4-fluorophenyl)thio)-2-methylpropanoyl)piperazine-1-carbonyl)benzyl)phthalazin-1(2H)-one]",2.1
5.94 nM,"CC(C)(C(=O)N1CCN(C(=O)c2cc(Cc3n[nH]c(=O)c4ccccc34)ccc2F)CC1)[S+]([O-])c1ccc(F)cc1 (stereo not drawn) [Example 25, 4-(4-fluoro-3-(4-(2-((4-fluorophenyl)sulfinyl)-2-methylpropanoyl)piperazine-1-carbonyl)benzyl)phthalazin-1(2H)-one]",2.15
6.43 nM,"CC(C)(Oc1ccc(F)cc1F)C(=O)N1CCN(C(=O)c2cc(Cc3n[nH]c(=O)c4ccccc34)ccc2F)CC1 [Example 26, 4-(3-(4-(2-(2,4-difluorophenoxy)-2-methylpropanoyl)piperazine-1-carbonyl)-4-fluorobenzyl)phthalazin-1(2H)-one]",2.59
5.17 nM,"CC(C)(Sc1ccc(F)cc1F)C(=O)N1CCN(C(=O)c2cc(Cc3n[nH]c(=O)c4ccccc34)ccc2F)CC1 [Example 27, 4-(3-(4-(2-((2,4-difluorophenyl)thio)-2-methylpropanoyl)piperazine-1-carbonyl)-4-fluorobenzyl)phthalazin-1(2H)-one]",2.49
7.08 nM,"COc1cccc(SC(C)(C)C(=O)N2CCN(C(=O)c3cc(Cc4n[nH]c(=O)c5ccccc45)ccc3F)CC2)c1 [Example 28, 4-(4-fluoro-3-(4-(2-((3-methoxyphenyl)thio)-2-methylpropanoyl)piperazine-1-carbonyl)benzyl)phthalazin-1(2H)-one]",2.08
8.6 nM,"CC(C)(Sc1ccccc1Br)C(=O)N1CCN(C(=O)c2cc(Cc3n[nH]c(=O)c4ccccc34)ccc2F)CC1 [Example 29, 4-(3-(4-(2-((2-bromophenyl)thio)-2-methylpropanoyl)piperazine-1-carbonyl)-4-fluorobenzyl)phthalazin-1(2H)-one]",2.22
9.38 nM,"CC(C)(Sc1ccc(Cl)c(Cl)c1)C(=O)N1CCN(C(=O)c2cc(Cc3n[nH]c(=O)c4ccccc34)ccc2F)CC1 [Example 30, 4-(3-(4-(2-((3,4-dichlorophenyl)thio)-2-methylpropanoyl)piperazine-1-carbonyl)-4-fluorobenzyl)phthalazin-1(2H)-one]",2.22
3.05 nM,"CC(C)(Sc1ccc(Cl)cc1Cl)C(=O)N1CCN(C(=O)c2cc(Cc3n[nH]c(=O)c4ccccc34)ccc2F)CC1 [Example 31, 4-(3-(4-(2-((2,4-dichlorophenyl)thio)-2-methylpropanoyl)piperazine-1-carbonyl)-4-fluorobenzyl)phthalazin-1(2H)-one]",1.94
5.7 nM,"CC(C)(Sc1cccc(F)c1)C(=O)N1CCN(C(=O)c2cc(Cc3n[nH]c(=O)c4ccccc34)ccc2F)CC1 [Example 32, 4-(4-fluoro-3-(4-(2-((3-fluorophenyl)thio)-2-methylpropanoyl)piperazine-1-carbonyl)benzyl)phthalazin-1(2H)-one]",2.08
7.9 nM,"CC(C)(Sc1cc(Cl)ccc1Cl)C(=O)N1CCN(C(=O)c2cc(Cc3n[nH]c(=O)c4ccccc34)ccc2F)CC1 [Example 33, 4-(3-(4-(2-((2,5-dichlorophenyl)thio)-2-methylpropanoyl)piperazine-1-carbonyl)-4-fluorobenzyl)phthalazin-1(2H)-one]",1.98
6.68 nM,"CC(C)(Nc1ccc(F)cc1)C(=O)N1CCN(C(=O)c2cc(Cc3n[nH]c(=O)c4ccccc34)ccc2F)CC1 [Example 34, 4-(4-fluoro-3-(4-(2-((4-fluorophenyl)amino)-2-methylpropanoyl)piperazine-1-carbonyl)-benzyl)phthalazin-1(2H)-one]",2.85
5 nM,"CC(C)(Sc1ccccn1)C(=O)N1CCN(C(=O)c2cc(Cc3n[nH]c(=O)c4ccccc34)ccc2F)CC1 [Example 38, 4-(4-fluoro-3-(4-(2-methyl-2-(pyridin-2-ylthio)propanoyl)piperazine-1-carbonyl)benzyl)phthalazin-1(2H)-one]",1.96
10.6 nM,"CC(C)(Sc1ccccc1)C(=O)N1CCN(C(=O)c2cc(Cc3n[nH]c(=O)c4ccccc34)ccc2F)CC1 [Example 46, 4-(4-fluoro-3-(4-(2-methyl-2-(phenylthio)propanoyl)piperazine-1-carbonyl)benzyl)phthalazin-1(2H)-one]",2.28
9.16 nM,"CC(C)(Sc1ccc(Br)cc1)C(=O)N1CCN(C(=O)c2cc(Cc3n[nH]c(=O)c4ccccc34)ccc2F)CC1 [Example 47, 4-(3-(4-(2-((4-bromophenyl)thio)-2-methylpropanoyl)piperazine-1-carbonyl)-4-fluorobenzyl)phthalazin-1(2H)-one]",2.12
